Test results reported in patent US20250120975A1, “INTEGRIN INHIBITORS FOR TREATMENT OF PRIMARY SCLEROSING CHOLANGITIS” (Pliant Therapeutics, Inc., priority 2023, published 2025).
Where two headings read alike, the source gives them in different places.

Tests used:
[1] = tested on: BALB/c.Mdr2−/− mouse model of biliary fibrosis; experiment: Assessment of body and organ weights (liver, spleen) and colon length; assay type: in vivo; conditions: 6 weeks
Source text: The tissue source is BALBc.Mdr2-/−male mice that were 6 weeks old. The Mdr2(abcb4)−/− mouse model of sclerosing cholangitis has been previously described and is a model of spontaneously progressive hepatic fibrosis in mice with deletion of the biliary phospholipid flippase on fibrosis-susceptible background (Mdr2(abcb4)^−/−. BALB/c mouse). See N. Ikenaga, et al. (2015) Am J Pathol. 185 (2): 325-334, the entire contents of which are hereby incorporated by reference in their entirety.
(S)-4-((2-methoxyethyl)(4-(5,6,7,8-tetrahydro-1,8-naphthyridin-2-yl)butyl)amino)-2-(quinazolin-4-ylamino)butanoic acid (or PBS) was dosed once daily orally at 100 mg/kg, 300 mg/kg or 1000 mg/kg (see Table B-2) starting at 6 weeks after birth of the subject and continuing for 6 weeks. All animals were euthanized and necropsied at the end of week 12.
Body, liver and spleen weights and colon length were determined at necropsy. Liver and plasma were snap frozen/preserved in liquid nitrogen. Two pieces of liver were fixed in formalin for histological assessment.

[2] = tested on: subjects with PSC and suspected liver fibrosis; experiment: Phase 2a INTEGRIS-PSC: transient elastography (FibroScan) liver stiffness; assay type: in vivo, human; conditions: 320 mg, Week 24, compared to an increase on placebo, Example B-5
Source text: Transient elastography (TE) utilizes an ultrasound shear wave to assess the elasticity of the liver, that is, how “stiff” the liver tissue is. Fibrosis causes stiffening or hardening of tissue, and TE can be used to diagnose fibrosis and determine the degree of fibrosis. The FibroScan® device (FibroScan® is a registered trademark of ECHOSENS, Paris, France, for medical equipment and software) can be used for TE. (Kemp W, Roberts S., Aust Fam Physician. 2013 July; 42(7):468-71; and Ozturk A. et al., Abdom Radiol (NY), 2022 September; 47 (9): 3037-3050; each of which are hereby incorporated by reference in their entireties).
Each subject underwent an ultrasound-based transient elastography (FibroScan®) assessment at the screening and Week 12 study visits (Parts 1 and 2) and will undergo an ultrasound-based transient elastography (FibroScan®) assessment at the screening, at Week 12 study visits, and at Week 24 (Part 3 only). FibroScan® is a noninvasive technique that uses ultrasound-based transient elastography (TE) to assess liver stiffness measurement (LSM) and determine likelihood of clinically meaningful liver fibrosis.
The LSM, as assessed by TE, is expressed in kilopascals (kPa). Larger values (normal range approximately between 2 and 7 kPa) indicate a greater likelihood of clinically meaningful liver fibrosis. See H. Ehlken, et al. (2016) PloS ONE 11 (10): e0164224 and C. […]

[3] = tested on: subjects with PSC and suspected liver fibrosis
[4] = biological target: αVβ6 integrin (Homo sapiens, UniProt P06756+P18564); experiment: Inhibition of αVβ6 integrin (IC50); assay type: binding; conditions: read-out: 50% inhibitory concentration [IC50] αVβ6
[5] = biological target: αVβ1 integrin (Homo sapiens, UniProt P05556+P06756); experiment: Inhibition of αVβ1 integrin (IC50); assay type: binding; conditions: read-out: 50% inhibitory concentration [IC50] αVβ1
[6] = 40 mg (n = 24), 12 weeks, Example B-3
[7] = 40 mg once daily, Week 12, n = 24
[8] = 80 mg (n = 20), 12 weeks, Example B-3
[9] = 80 mg once daily, Week 12, n = 20
[10] = 160 mg (n = 20), 12 weeks, Example B-3
[11] = 160 mg once daily, Week 12, n = 20
[12] = 320 mg once daily, Week 12, n = 27
[13] = 320 mg, Example B-5 24-week data (Table D-7), n = 27
[14] = 40, 80, 160, and 320 mg pooled, Week 12, n = 91
[15] = All (n = 64), 12 weeks, Example B-3

Sequence of αVβ6 integrin (P06756 31-1048): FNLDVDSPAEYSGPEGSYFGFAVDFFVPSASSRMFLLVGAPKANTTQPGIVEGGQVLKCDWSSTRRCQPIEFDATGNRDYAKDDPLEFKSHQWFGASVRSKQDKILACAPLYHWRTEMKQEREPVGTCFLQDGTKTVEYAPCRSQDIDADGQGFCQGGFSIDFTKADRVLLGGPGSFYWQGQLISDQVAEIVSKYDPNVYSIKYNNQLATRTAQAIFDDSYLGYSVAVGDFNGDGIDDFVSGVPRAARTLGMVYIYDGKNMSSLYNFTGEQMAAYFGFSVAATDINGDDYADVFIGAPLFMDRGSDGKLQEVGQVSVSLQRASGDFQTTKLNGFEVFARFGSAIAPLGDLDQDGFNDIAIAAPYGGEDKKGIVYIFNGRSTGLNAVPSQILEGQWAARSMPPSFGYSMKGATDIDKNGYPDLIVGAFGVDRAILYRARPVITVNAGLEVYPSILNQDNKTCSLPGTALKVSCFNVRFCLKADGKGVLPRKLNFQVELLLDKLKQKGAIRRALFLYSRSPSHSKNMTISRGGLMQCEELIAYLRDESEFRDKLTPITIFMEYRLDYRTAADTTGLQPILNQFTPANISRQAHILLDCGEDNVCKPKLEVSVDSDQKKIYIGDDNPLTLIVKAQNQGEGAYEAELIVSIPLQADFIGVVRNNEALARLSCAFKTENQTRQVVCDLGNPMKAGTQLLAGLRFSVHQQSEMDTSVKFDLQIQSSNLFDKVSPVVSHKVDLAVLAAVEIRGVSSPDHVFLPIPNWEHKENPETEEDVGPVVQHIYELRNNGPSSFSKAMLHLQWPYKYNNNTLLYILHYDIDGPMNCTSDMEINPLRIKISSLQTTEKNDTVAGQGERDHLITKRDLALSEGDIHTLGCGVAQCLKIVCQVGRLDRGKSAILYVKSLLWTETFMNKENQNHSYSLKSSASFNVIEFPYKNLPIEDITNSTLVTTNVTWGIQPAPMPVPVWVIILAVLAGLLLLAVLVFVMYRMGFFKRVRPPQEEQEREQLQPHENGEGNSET
Sequence of αVβ6 integrin (P18564 22-788): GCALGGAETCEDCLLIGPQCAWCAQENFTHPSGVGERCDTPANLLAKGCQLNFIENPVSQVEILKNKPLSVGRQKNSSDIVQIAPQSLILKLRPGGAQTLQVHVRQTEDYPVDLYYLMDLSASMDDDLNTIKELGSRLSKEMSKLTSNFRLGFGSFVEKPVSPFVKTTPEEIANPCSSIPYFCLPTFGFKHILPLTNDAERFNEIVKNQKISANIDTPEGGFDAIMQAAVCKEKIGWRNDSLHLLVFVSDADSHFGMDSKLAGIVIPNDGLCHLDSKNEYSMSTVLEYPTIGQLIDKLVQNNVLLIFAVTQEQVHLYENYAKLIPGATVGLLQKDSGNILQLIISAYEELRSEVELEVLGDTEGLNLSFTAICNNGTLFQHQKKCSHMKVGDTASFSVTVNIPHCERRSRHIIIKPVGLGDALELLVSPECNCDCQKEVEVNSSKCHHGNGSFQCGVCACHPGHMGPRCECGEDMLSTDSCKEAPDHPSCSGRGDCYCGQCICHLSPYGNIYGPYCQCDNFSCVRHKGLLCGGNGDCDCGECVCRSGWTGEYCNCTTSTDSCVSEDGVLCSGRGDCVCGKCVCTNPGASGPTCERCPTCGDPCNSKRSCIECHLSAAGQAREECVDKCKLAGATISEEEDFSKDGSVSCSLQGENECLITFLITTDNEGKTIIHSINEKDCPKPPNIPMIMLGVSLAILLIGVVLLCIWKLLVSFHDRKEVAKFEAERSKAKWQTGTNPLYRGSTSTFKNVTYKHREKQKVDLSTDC
Sequence of αVβ1 integrin (P06756 31-1048): as the sequence (P06756 31-1048) above
Sequence of αVβ1 integrin (P05556 21-798): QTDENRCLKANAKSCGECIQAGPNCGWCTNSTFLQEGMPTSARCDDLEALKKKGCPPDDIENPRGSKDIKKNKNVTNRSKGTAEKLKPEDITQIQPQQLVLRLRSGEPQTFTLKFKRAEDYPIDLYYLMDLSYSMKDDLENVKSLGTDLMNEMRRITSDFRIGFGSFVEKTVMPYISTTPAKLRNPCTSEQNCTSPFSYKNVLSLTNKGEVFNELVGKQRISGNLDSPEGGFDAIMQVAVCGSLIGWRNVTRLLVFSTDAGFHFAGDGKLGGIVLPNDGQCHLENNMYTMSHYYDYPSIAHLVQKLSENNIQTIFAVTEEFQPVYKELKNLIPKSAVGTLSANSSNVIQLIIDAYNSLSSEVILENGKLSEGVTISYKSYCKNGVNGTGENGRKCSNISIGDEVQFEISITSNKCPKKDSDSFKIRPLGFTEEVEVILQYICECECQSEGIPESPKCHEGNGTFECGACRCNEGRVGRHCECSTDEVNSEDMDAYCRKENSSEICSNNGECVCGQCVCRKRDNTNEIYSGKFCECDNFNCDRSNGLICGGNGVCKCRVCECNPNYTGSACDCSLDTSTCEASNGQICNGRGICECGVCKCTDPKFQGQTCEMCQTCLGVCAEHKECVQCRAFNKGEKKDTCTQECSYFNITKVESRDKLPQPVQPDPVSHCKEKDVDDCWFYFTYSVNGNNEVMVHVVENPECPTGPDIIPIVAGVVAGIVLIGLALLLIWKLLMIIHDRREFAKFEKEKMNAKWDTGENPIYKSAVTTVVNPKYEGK

Structure (SMILES): COCCN(CCCCc1ccc2c(n1)NCCC2)CC[C@H](Nc1ncnc2ccccc12)C(=O)O [Bexotegrast, (S)-4-((2-methoxyethyl)(4-(5,6,7,8-tetrahydro-1,8-naphthyridin-2-yl)butyl)amino)-2-(quinazolin-4-ylamino)butanoic acid]
- liver weight relative to vehicle control ([1]; 1000 mg/kg/day): decreased
- colon length ([1]; 100, 300, 1000 mg/kg): did not change
- spleen weights ([1]; all doses (100, 300, 1000 mg/kg)): no changes
- median liver stiffness by transient elastography (TE) [2]: numerical reduction
- median liver stiffness by transient elastography (TE) ([2]; listed as bexotegrast): decrease
- COVID-19 TEAE, % of Participants Reporting [3, 6]: (8.3) %
- COVID-19 TEAE, n of Participants Reporting [3, 6]: 2 n
- TEAE Leading to Death, n of Participants Reporting [3, 6]: 0 n
- COVID-19 TEAE, % of Participants Reporting [3, 7]: (8.3) %
- COVID-19 TEAE, n of Participants Reporting [3, 7]: 2
- TEAE Leading to Death, n of Participants Reporting [3, 7]: 0
- TEAE Leading to Withdrawal of bexotegrast, n of Participants Reporting ([3]; 40 mg once daily, Week 12, n = 24, COVID-19/dyspnoea/nasal congestion): 1
- TEAE leading to withdrawal: AE Preferred Term ([3]; 40 mg treatment group, Example B-3): COVID-19/
- COVID-19 TEAE, % of Participants Reporting [3, 8]: (5.0) %
- COVID-19 TEAE, n of Participants Reporting [3, 8]: 1 n
- TEAE Leading to Death, n of Participants Reporting [3, 8]: 0 n
- COVID-19 TEAE, % of Participants Reporting [3, 9]: (5.0) %
- COVID-19 TEAE, n of Participants Reporting [3, 9]: 1
- TEAE Leading to Death, n of Participants Reporting [3, 9]: 0
- COVID-19 TEAE, n of Participants Reporting [3, 10]: 0 n
- TEAE Leading to Death, n of Participants Reporting [3, 10]: 0 n
- COVID-19 TEAE, n of Participants Reporting [3, 11]: 0
- TEAE Leading to Death, n of Participants Reporting [3, 11]: 0
- COVID-19 TEAE, % of Participants Reporting [3, 12]: (14.8) %
- COVID-19 TEAE, n of Participants Reporting [3, 12]: 4
- TEAE Leading to Death, n of Participants Reporting [3, 12]: 0
- TEAE Leading to Death, n of Participants Reporting After Week 12 ([3]; 320 mg, After Week 12 (Table D-4), n = 27): 0
- COVID-19 TEAE, % of Participants Reporting [3, 13]: 18.5%
- COVID-19 TEAE, n of Participants Reporting [3, 13]: 5
- TEAE Leading to Death, n of Participants Reporting ([3]; 320 mg, after 24 weeks (Table D-3), n = 27): 0
- COVID-19 TEAE, % of Participants Reporting [3, 14]: (7.7) %
- COVID-19 TEAE, n of Participants Reporting [3, 14]: 7
- TEAE Leading to Death, n of Participants Reporting [3, 14]: 0
- COVID-19 TEAE, % of Participants Reporting [3, 15]: (4.7) %
- COVID-19 TEAE, n of Participants Reporting [3, 15]: 3 n
- TEAE Leading to Death, n of Participants Reporting [3, 15]: 0 n
- Cholangitis (TEAE), n of Participants Reporting ([3]; human, in vivo, 12 weeks): 2 n
- Fatigue (TEAE), n of Participants Reporting ([3]; human, in vivo, 12 weeks): 9 n
- Frequent bowel movements (TEAE), % of Participants Reporting ([3]; human, in vivo, 12 weeks): (4.7) %
- Frequent bowel movements (TEAE), n of Participants Reporting ([3]; human, in vivo, 12 weeks): 3 n
- Headache (TEAE), n of Participants Reporting ([3]; human, in vivo, 12 weeks): 6 n
- Nausea (TEAE), n of Participants Reporting ([3]; human, in vivo, 12 weeks): 6 n
- Pruritus (TEAE), n of Participants Reporting ([3]; human, in vivo, 12 weeks): 9 n
- Serious TEAE Related to study drug, n of Participants Reporting ([3]; human, in vivo, 12 weeks): 0 n
- Serious TEAE, % of Participants Reporting ([3]; human, in vivo, 12 weeks): (3.1) %
- Serious TEAE, n of Participants Reporting ([3]; human, in vivo, 12 weeks): 2 n
- TEAE Leading to Early Termination from Study, % of Participants Reporting ([3]; human, in vivo, 12 weeks): (1.6)^1%
- TEAE Leading to Early Termination from Study, n of Participants Reporting ([3]; human, in vivo, 12 weeks): 1 n
- TEAE Leading to Interruption of Study Drug, % of Participants Reporting ([3]; human, in vivo, 12 weeks): (1.6)^1%
- TEAE Leading to Interruption of Study Drug, n of Participants Reporting ([3]; human, in vivo, 12 weeks): 1 n
- TEAE Leading to Withdrawal of Study Drug, % of Participants Reporting ([3]; human, in vivo, 12 weeks): (4.7)^2, 3, 4%
- TEAE Leading to Withdrawal of Study Drug, n of Participants Reporting ([3]; human, in vivo, 12 weeks): 3 n
- TEAE Related to study drug, % of Participants Reporting ([3]; human, in vivo, 12 weeks): (17.2) %
- TEAE Related to study drug, n of Participants Reporting ([3]; human, in vivo, 12 weeks): 11 n
- TEAE of CTCAE Grade 3 or Higher Related to study drug, n of Participants Reporting ([3]; human, in vivo, 12 weeks): 0 n
- TEAE of CTCAE Grade 3 or Higher, % of Participants Reporting ([3]; human, in vivo, 12 weeks): (6.3) %
- TEAE of CTCAE Grade 3 or Higher, n of Participants Reporting ([3]; human, in vivo, 12 weeks): 4 n
- TEAE, % of Participants Reporting ([3]; human, in vivo, 12 weeks): (64.1) %
- TEAE, n of Participants Reporting ([3]; human, in vivo, 12 weeks): 41 n
- AEs of pruritus and cholangitis relative to placebo ([3]; in vivo): occurred less frequently
- IC50 [4]: 5.7 nM
- IC50 [5]: 3.4 nM
